From ChEMBL document CHEMBL3870355, “Biological Evaluation in Vitro and in Silico of Azetidin-2-one Derivatives as Potential Anticancer Agents” (ACS Med Chem Lett, 2017)
Activity calls are given as the source filed them. The calls are words filed in the database; no cut-off is given here.

Key:
[1] = Cytotoxicity against mouse B16F10 cells by MTT assay; assay type: functional, cell-based; details: B16-F10
[2] = Cytotoxicity against human SiHa cells by MTT assay; assay type: functional, cell-based
[3] = Cytotoxicity against human Chang cells by MTT assay; assay type: toxicity, cell-based
B16-F10 [4] = assay: Induction of apoptosis in mouse B16F10 cells assessed as caspase-3 activation using Ac-DEVD-pNA as substrate by spectrophotometric analysis; assay type: functional
B16-F10 [5] = assay: Induction of changes in cell death related gene expression in mouse B16F10 cells by GenArise analysis; assay type: functional, cell-based
B16-F10 [6] = assay: Effect on tubulin gene expression in mouse B16F10 cells by GenArise analysis; assay type: functional, cell-based
B16-F10 [7] = assay: Induction of changes in cytoskeleton and cell division processes related gene expression in mouse B16F10 cells by GenArise analysis; assay type: functional, cell-based
B16-F10 [8] = assay: Induction of apoptosis in mouse B16F10 cells assessed as formation of organized shedding vesicles by microscopic analysis; assay type: functional, cell-based

COc1ccc(N2C(=O)[C@@H](Oc3ccccc3)[C@H]2c2ccccc2[N+](=O)[O-])cc1
IC50 [1]: 4820 nM | IC50 [2]: 220 nM | IC50 [3]: 3730 nM

O=C1C(Oc2ccccc2)C(c2ccncc2)N1c1nc2ccccc2s1 (racemic)
IC50 [1]: 1700 nM | IC50 [2]: 1340 nM | IC50 [3]: 1030 nM

O=C1C(Oc2ccccc2)C(c2ccco2)N1c1nc2ccccc2s1 (racemic)
IC50 [1]: 340 nM | IC50 [2]: 330 nM | IC50 [3]: 17 nM | Activity (B16-F10 [4]): 93%

O=C1C(Oc2ccccc2)C(c2ccc(Cl)cc2)N1c1nc2ccccc2s1 (racemic)
IC50 [1]: 310 nM | IC50 [2]: 90 nM | IC50 [3]: 230 nM

O=C1C(Oc2ccccc2)C(c2ccc([N+](=O)[O-])cc2)N1c1nc2ccccc2s1 (racemic)
IC50 [1]: 450 nM | IC50 [2]: 120 nM | IC50 [3]: 70 nM

COc1ccc(N2C(=O)[C@@H](Oc3ccccc3)[C@H]2c2ccc(C)cc2)cc1 (relative stereo)
IC50 [1]: 1210 nM | IC50 [2]: 70 nM | IC50 [3]: > 10000 nM | Activity (B16-F10 [5]): Active | Activity (B16-F10 [6]): Active | Activity (B16-F10 [7]): Active | Activity (B16-F10 [8]): Active | Activity (B16-F10 [4]): 100%

COc1ccc(N2C(=O)[C@@H](OC)[C@H]2c2ccc([N+](=O)[O-])cc2)cc1 (relative stereo)
IC50 [1]: 2080 nM | IC50 [2]: 8130 nM | IC50 [3]: > 10000 nM | Activity (B16-F10 [4]): 88%

COc1ccc(N2C(=O)[C@@H](OC)[C@H]2c2ccccc2[N+](=O)[O-])cc1 (relative stereo)
IC50 [1]: 2910 nM | IC50 [2]: 7290 nM | IC50 [3]: 9750 nM

COc1ccc(N2C(=O)[C@@H](OC)[C@H]2c2ccc(C)cc2)cc1 (relative stereo)
IC50 [1]: 4120 nM | IC50 [2]: 730 nM | IC50 [3]: 3920 nM

COc1ccc([C@@H]2[C@H](OC)C(=O)N2c2ccc(OC)cc2)cc1 (relative stereo)
IC50 [1]: 2050 nM | IC50 [2]: 6360 nM | IC50 [3]: 8380 nM

COc1ccc([C@@H]2[C@H](Oc3ccccc3)C(=O)N2c2ccc(OC)cc2)cc1 (relative stereo)
IC50 [1]: 9700 nM | IC50 [2]: 420 nM | IC50 [3]: 630 nM

COc1ccc(N2C(=O)[C@@H](OC)[C@H]2c2ccc(Cl)cc2)cc1 (relative stereo)
IC50 [1]: > 10000 nM | IC50 [2]: 8610 nM | IC50 [3]: 3410 nM

COc1ccc(N2C(=O)[C@@H](Oc3ccccc3)[C@H]2c2ccc([N+](=O)[O-])cc2)cc1 (relative stereo)
IC50 [1]: 870 nM | IC50 [2]: 3640 nM | IC50 [3]: 2080 nM

COc1ccc(N2C(=O)[C@@H](OC)[C@H]2c2ccc(F)cc2)cc1 (relative stereo)
IC50 [1]: 2820 nM | IC50 [2]: 2890 nM | IC50 [3]: 7570 nM

COc1ccc(N2C(=O)[C@@H](Oc3ccccc3)[C@H]2c2ccc(F)cc2)cc1 (relative stereo)
IC50 [1]: 3260 nM | IC50 [2]: 80 nM | IC50 [3]: 740 nM

COc1ccc(N2C(=O)[C@@H](Oc3ccccc3)[C@H]2c2ccccc2)cc1 (relative stereo)
IC50 [1]: 280 nM | IC50 [2]: 200 nM | IC50 [3]: 2850 nM

COc1cc([C@@H]2c3cc4c(cc3[C@H](O)[C@H]3COC(=O)[C@H]23)OCO4)cc(OC)c1OC [PODOFILOX]
Activity (B16-F10 [8]): Active | Activity (B16-F10 [4]): 100%

CC[C@]1(O)C[C@H]2CN(CCc3c([nH]c4ccccc34)[C@@](C(=O)OC)(c3cc4c(cc3OC)N(C=O)[C@H]3[C@@](O)(C(=O)OC)[C@H](OC(C)=O)[C@]5(CC)C=CCN6CC[C@]43[C@@H]65)C2)C1 [VINCRISTINE]
IC50 [1]: 10 nM | IC50 [2]: 10 nM | IC50 [3]: 10 nM
